In patent US6872517B2, “Early diagnosis of cancerous and precancerous conditions by leakage of signature peptides and carbohydrates into the bloodstream” (Lankenau Institute for Medical Research, priority 2000, dated 2005):

Experiments:
DMH-treated colon = test: Barrier function of DMH-treated colon (Rt, 14C-D-mannitol flux, aberrant crypts); format: in vivo, rat
Text: In addition, however, weekly changes in barrier function of DMH-treated colon were examined, with an emphasis on assessing that function by means of electrophysiology (Rt) and transepithelial flux of ^14C-D-mannitol.

occludin = conditions: cited from earlier work
LLC-PK1 = conditions: cited from earlier work
[1] = system: renal epithelial cell line; conditions: cited from earlier work
rat colon epithelium = test: Increased luminal EGF in rat colon; format: in vivo
Text: The biological significance here is that luminal fluids of many epithelial tissues contain very high levels of certain growth factors (Barnard et al., 1995; Jorgenson et al., 1990; Nexo et al., 1992; Mroczkowski and Reich, 1993), whereas the receptors for these growth factors are normally found on the abluminal cell surface. (Bishop and Wen, 1994; Muto et al., 1991; Thompson, 1988; Scheving et al., 1989). […] (Mullin, 1997). […] This is a direct consequence of the carcinogen's effect on colonic crypt epithelial TJs as described below.

[2] = as weeks of DMH exposure progressed

CNNC [DMH, dimethylhydrazine]
transepithelial electrical resistance (Rt) (DMH-treated colon; [2]): irregular but significant decline | transepithelial flux of 14C-D-mannitol (DMH-treated colon; [2]): rise | number of aberrant colon crypts (DMH-treated colon; with increasing weeks of DMH exposure): increased in number

CCCCCCCCCCCCCC(=O)O[C@@H]1[C@@H](C)[C@@]2(O)[C@@H](C=C(CO)C[C@]3(O)C(=O)C(C)=C[C@@H]23)[C@@H]2C(C)(C)[C@]12OC(C)=O [TPA]
ZO-1 expression (occludin; immunofluorescence): down regulated | localization of occludin (occludin; immunofluorescence): very little change | threonine phosphorylation state of occludin (occludin; in association with increased TJ permeability): decrease | transepithelial electrical resistance (Rt) (LLC-PK1; LLC-PK1 cell line): rapid, dose dependent decrease | penetration of tight junctions by ruthenium red (LLC-PK1; TPA-treated cell sheets, not control cultures): able to penetrate | size of molecules the TJs became leaky to (LLC-PK1; TPA-treated cell sheets): ≤ 2 million | crossing of paracellular markers D-mannitol (mw 182) and polyethylene glycol (mw 4000) (LLC-PK1; TPA-treated epithelial cell sheet vs control cell sheet): much more rapidly | morphology after chronic exposure (LLC-PK1; chronic exposure, 4 days or greater): polyp-like, multilayered foci | transepithelial leakiness to salts [1]: capable of causing transepithelial leakiness to salts

EGF: Epidermal Growth Factor, a growth factor (NSDSECPLSHDGYCLHDGVCMYIEALDKYACNCVVGYIGERCQYRDLKWWELR; Epidermal growth factor; UniProt P01133 971-1023, looked up)
carcinomas in carcinogen-treated rat colon (rat colon epithelium; colon treated with dimethylhydrazine, luminal EGF increased): greater number and size of carcinomas | effect on normal rat colon epithelium (rat colon epithelium; increased EGF concentration in colonic lumen): does not produce any observed effect
